Results: ChEMBL document CHEMBL4354781, “Drug-resistance in Mycobacterium tuberculosis: where we stand” (2019)
In brackets after ≈: the same amount, converted by molar mass.

Experiments:
Format in all cases: functional
[1] = test system: Mycobacterium tuberculosis; experiment: Antitubercular activity against Mycobacterium tuberculosis H37Rv ATCC 35820
[2] = test system: Mycobacterium tuberculosis; experiment: Antitubercular activity against Mycobacterium tuberculosis Kurono ATCC 35812
[3] = test system: Mycobacterium tuberculosis; experiment: Antitubercular activity against Mycobacterium tuberculosis H37Rv ATCC 35837
[4] = test system: Mycobacterium tuberculosis; experiment: Antitubercular activity against Mycobacterium tuberculosis H37Rv ATCC 25618
[5] = test system: Mycobacterium tuberculosis; experiment: Antitubercular activity against Mycobacterium tuberculosis H37Rv ATCC 35838
[6] = test system: Mycobacterium tuberculosis; experiment: Antitubercular activity against Mycobacterium tuberculosis H37Rv ATCC 35822
[7] = test system: Mycobacterium tuberculosis; experiment: Antitubercular activity against Mycobacterium tuberculosis XDR
[8] = test system: Mycobacterium tuberculosis; experiment: Antitubercular activity against Mycobacterium tuberculosis by radiometric analysis

For `C[C@]1(COc2ccc(N3CCC(Oc4ccc(OC(F)(F)F)cc4)CC3)cc2)Cn2cc([N+](=O)[O-])nc2O1` [DELAMANID], the MIC [1] was 0.006 to 0.024 µg/mL (≈ 0.0112 to 0.0449 µM), the MIC [2] was 0.006 to 0.024 µg/mL (≈ 0.0112 to 0.0449 µM) and the MIC [3] was 0.006 to 0.024 µg/mL (≈ 0.0112 to 0.0449 µM). The MIC [4] was 0.006 to 0.024 µg/mL (≈ 0.0112 to 0.0449 µM), the MIC [5] was 0.006 to 0.024 µg/mL (≈ 0.0112 to 0.0449 µM) and the MIC [6] was 0.006 to 0.024 µg/mL (≈ 0.0112 to 0.0449 µM).

For `CC(=O)NC[C@H]1CN(c2ccc(N3CCOCC3)c(F)c2)C(=O)O1` [LINEZOLID], the MIC [7] was 0.125 to 0.5 µg/mL (≈ 0.371 to 1.48 µM).

With `O=[N+]([O-])c1cn2c(n1)OC[C@@H](OCc1ccc(OC(F)(F)F)cc1)C2` [PRETOMANID] the MIC [8] was 0.015 to 0.25 µg/mL (≈ 0.0418 to 0.696 µM).
